A word on the remaining activity: it is the activity still measured, relative to the control.

Common to all, as to type: biochemical
One assay deals with T1, hCB2R (Homo sapiens, UniProt P34972).
T1 construct: expressed in transfected cells; host or cells: CHO
The assay can be described thus: [35S]GTPγS binding, CB2R agonist activity, hCB2R-CHO cell membranes. The conditions noted are these: 10 µM. A general note: GTPγS is a poorly hydrolysed GTP analogue; its binding reports G protein activation.

In assay [1] the test system is metabolic serine hydrolases. The assay can be described thus: Competitive ABPP, other serine hydrolases of mouse brain membrane proteome. On the procedure: Competitive ABPP using HEK293 cell lysates and mouse brain membranes was conducted to visualize effects of selected triterpenoids on the binding of the active site serine-targeting fluorescent fluorophosphonate probe TAMRA-FP following outlines of previous protocols, [31]. Briefly, lysates (25 µg) of HEK293 cells with or without (Mock) hABHD12 overexpression or mouse wholebrain membranes (100 µg) were treated for 1 h with DMSO or the inhibitor, after which TAMRA-FP labelling was conducted for 5 min (lysates) or 1 hour (membranes) at RT (final probe concentration 2 µM). The reaction was quenched by addition of gel loading buffer (followed by boiling for 5 min in the case of lysates), after which 10 µg protein (10 µl) was loaded per lane and the proteins were resolved in 10% SDS-PAGE together with standards. TAMRA-FP labeling was visualized (λex 552; λem 575 nm) by a fluorescent reader (FLA-3000 laser fluorescence scanner, Fujifilm, Tokyo, Japan). The intensity of bands was quantified using ImageJ, a freely available image analysis software (http://rsbweb.nih.gov/ij/).
For ABPP experiments (Figure 6C) and cannabinoid receptor activity assays (Table S2), membranes prepared from brain tissue of 4-week-old male rodents were used. The animals were obtained from the National Laboratory Animal Centre, University of Eastern Finland. […]

The next assay addresses T2, hABHD6 (Homo sapiens, UniProt Q9BV23).
T2 construct: expressed in transfected cells; host or cells: HEK293 (transient)
T2 sequence (Q9BV23 1-337): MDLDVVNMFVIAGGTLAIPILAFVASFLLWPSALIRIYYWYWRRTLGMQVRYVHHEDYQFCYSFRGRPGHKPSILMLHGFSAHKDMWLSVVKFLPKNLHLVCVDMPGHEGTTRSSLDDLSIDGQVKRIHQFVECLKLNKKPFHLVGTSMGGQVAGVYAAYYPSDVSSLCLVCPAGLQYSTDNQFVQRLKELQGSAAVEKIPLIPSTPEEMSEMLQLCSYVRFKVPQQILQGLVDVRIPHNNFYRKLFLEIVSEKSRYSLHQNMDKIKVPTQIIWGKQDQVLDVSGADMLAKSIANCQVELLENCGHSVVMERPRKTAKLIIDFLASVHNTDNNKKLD
The assay can be described thus: Fluorescent glycerol assay in hABHD6-HEK293 lysates. The note with it: 10 µM; NI = no inhibition at 10 µM; read-out: hABHD6 Remaining activity % control ± s.e.m (n=3).

Another assay has as its target T3, hMAGL (Homo sapiens, UniProt Q99685).
T3 construct: expressed in transfected cells; host or cells: HEK293 (transient)
T3 sequence (Q99685 1-303): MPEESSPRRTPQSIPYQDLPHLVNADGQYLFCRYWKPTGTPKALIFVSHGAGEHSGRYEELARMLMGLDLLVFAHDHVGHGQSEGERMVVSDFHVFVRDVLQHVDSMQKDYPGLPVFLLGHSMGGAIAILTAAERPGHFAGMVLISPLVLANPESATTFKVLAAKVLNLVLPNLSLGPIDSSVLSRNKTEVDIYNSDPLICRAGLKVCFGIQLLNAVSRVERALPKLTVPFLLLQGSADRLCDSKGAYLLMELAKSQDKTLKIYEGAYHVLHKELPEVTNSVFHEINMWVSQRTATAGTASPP
The assay can be described thus: Fluorescent glycerol assay in hMAGL-HEK293 lysates. The note with it: 10 µM; read-out: hMAGL Remaining activity % control ± s.e.m (n=3).

A value given as a limit tells only on which side of the number the result lay.

T1 sequence (P34972 whole entry): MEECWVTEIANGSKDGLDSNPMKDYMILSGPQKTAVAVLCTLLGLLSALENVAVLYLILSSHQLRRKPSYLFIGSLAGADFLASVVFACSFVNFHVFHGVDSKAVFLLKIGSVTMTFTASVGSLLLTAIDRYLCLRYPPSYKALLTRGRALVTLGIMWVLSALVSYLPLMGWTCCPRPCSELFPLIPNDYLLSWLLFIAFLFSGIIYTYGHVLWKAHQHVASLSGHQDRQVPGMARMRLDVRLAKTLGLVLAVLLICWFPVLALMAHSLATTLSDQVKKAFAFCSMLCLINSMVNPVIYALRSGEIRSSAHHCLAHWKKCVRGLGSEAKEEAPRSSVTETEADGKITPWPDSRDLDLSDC

Turning to `CC1(C)CC[C@]2(C(=O)O)CC[C@]3(C)C(=CC[C@@H]4[C@@]5(C)C[C@@H](O)[C@H](O)C(C)(C)[C@@H]5CC[C@]43C)[C@@H]2C1` [Compound 8, Maslinic acid, reference compound], the “CB2R agonist activity [35S]GTPγS binding % Basal (Mean (range), n=2)” value on hCB2R is listed as 114 (104-123) % Basal. Further, the “additional targets among the metabolic serine hydrolases” value in assay [1] is reported as “no additional targets are evident”. In addition, the remaining activity at 10 µM is above 100% on hABHD6 and 95.6 ± 0.8% on hMAGL.
